Laboratory results as given in patent publication US9464076B2, “Benzothiophene derivative” (Daiichi Sankyo Company, Limited, priority 2013, dated 2016).
Counter-ions that a name gives are not always drawn.

The molecules below were run against PDE10A (Homo sapiens (Human), UniProt Q9Y233) (assay: Measurement of PDE10A inhibitory activity-2 (PDE10A fraction prepared from MOLT-4 cells)). Conditions: PDE10A fraction from MOLT-4 cells (peak around 250 mM NaCl).
Format: biochemical
Protocol: A human acute lymphoblastic lymphoma T cell line MOLT-4 (which can be purchased under ATCC No. CRL-1582 from ATCC) was cultured in an RPMI1640 medium containing 10% fetal bovine serum to obtain 5×10^8 MOLT-4 cells. The cells were recovered by centrifugation and suspended in 10 ml of buffer solution A (25 mM Tris-HCl, 5 mM 2-mercaptoethanol, 2 mM benzamidine, 2 mM EDTA, and 0.1 mM 4-(2-aminoethyl)benzenesulfonyl hydrochloride, pH 7.5). The cells were homogenized using a Polytron homogenizer and centrifuged (4° C., 25,000 g, 10 minutes). Then, the supernatant was further ultracentrifuged (4° C., 100,000 g, 60 minutes). The obtained supernatant was filtered through a 0.2 μm filter to obtain a soluble fraction.
HiTrap Q HP column (5 ml×2, GE Healthcare Japan Corp.) equilibrated with buffer solution A was charged with the obtained soluble fraction. Phosphodiesterase was eluted with 300 ml of buffer solution A containing a linear gradient solution of 0 to 0.8 M NaCl to recover sixty 5-ml fractions. Each fraction was tested for cAMP-metabolizing phosphodiesterase activity.
On the other hand, total RNA was prepared from Jurkat cells, one type of human T cell, and similarly subjected to RT-PCR. […] Eur J Biochem. 1999, 266 (3), 1118-2 has reported that PDE10A from the rat striatum and testis is eluted as an active peak centered around 250 mM NaCl.
For these reasons, this fraction was used as a solution for the evaluation of PDE10A inhibitory activity. The obtained solution was used to calculate the inhibitory activity (IC50) of a test compound in the same way as in the aforementioned test.

Sequence of PDE10A (Q9Y233 whole entry): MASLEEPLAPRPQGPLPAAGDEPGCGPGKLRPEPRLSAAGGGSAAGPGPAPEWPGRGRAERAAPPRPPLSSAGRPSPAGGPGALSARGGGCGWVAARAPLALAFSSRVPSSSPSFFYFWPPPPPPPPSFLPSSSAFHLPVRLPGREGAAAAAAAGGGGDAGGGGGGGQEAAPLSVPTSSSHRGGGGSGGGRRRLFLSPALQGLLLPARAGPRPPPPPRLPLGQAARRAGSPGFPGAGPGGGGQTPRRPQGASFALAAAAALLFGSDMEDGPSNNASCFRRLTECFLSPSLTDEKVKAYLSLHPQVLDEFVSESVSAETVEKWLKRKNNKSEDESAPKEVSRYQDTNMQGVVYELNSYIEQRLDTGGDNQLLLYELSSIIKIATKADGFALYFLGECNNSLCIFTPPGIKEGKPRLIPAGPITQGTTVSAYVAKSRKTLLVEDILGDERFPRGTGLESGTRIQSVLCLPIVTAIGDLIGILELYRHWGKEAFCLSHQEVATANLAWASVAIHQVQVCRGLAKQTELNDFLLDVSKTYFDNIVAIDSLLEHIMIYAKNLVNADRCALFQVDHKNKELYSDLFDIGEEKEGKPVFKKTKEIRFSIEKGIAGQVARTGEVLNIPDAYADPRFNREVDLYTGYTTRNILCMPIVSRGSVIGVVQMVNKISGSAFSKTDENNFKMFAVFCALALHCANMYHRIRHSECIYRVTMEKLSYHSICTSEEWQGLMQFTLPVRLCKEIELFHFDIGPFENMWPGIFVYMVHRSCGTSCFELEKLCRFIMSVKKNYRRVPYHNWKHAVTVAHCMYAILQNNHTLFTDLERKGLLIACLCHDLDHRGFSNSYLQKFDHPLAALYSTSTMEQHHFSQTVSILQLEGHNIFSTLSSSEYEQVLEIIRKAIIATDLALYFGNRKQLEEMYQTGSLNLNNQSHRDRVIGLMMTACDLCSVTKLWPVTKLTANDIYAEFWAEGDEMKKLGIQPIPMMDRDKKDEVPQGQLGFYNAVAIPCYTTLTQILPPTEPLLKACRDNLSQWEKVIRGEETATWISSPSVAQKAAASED

IC50 [nM]	SMILES
0.11	COCc1ccc(C(C)=O)c2sc(C(=O)Nc3ccc4c(C(=O)O)cccc4n3)c(C)c12 [Example 93, 2-(7-Acetyl-4-(methoxymethyl)-3-methylbenzo[b]thiophene-2-carboxamido)quinoline-5-carboxylic acid]
12	CC(=O)c1ccc(C(C)=O)c2sc(C(=O)Nc3cc(C(C)(C)O)c4ccccc4n3)cc12 [Example 8, 4,7-Diacetyl-N-(4-(2-hydroxypropan-2-yl)quinolin-2-yl)benzo[b]thiophene-2-carboxamide]
0.85	COCc1ccc(C(C)=O)c2sc(C(=O)Nc3cc(CN4CCC(F)(F)C4)c4ccccc4n3)c(C)c12 [Example 48, 7-Acetyl-N-(4-((3,3-difluoropyrrolidin-1-yl)methyl)quinolin-2-yl)-4-(methoxymethyl)-3-methylbenzo[b]thiophene-2-carboxamide]
0.67	Cc1c(C(=O)Nc2cc(C(C)(C)O)c3ccccc3n2)sc2c(C(=O)C3CCC3)cccc12 [Example 21, 7-(Cyclobutylcarbonyl)-N-(4-(2-hydroxypropan-2-yl)quinolin-2-yl)-3-methylbenzo[b]thiophene-2-carboxamide]
0.42	COCc1ccc(C(C)=O)c2sc(C(=O)Nc3ccc4c(C(=O)N5CC(F)(F)C5)cccc4n3)c(C)c12 [Example 100, 7-Acetyl-N-(5-((3,3-difluoroazetidin-1-yl)carbonyl)quinolin-2-yl)-4-(methoxymethyl)-3-methylbenzo[b]thiophene-2-carboxamide]
1.2	CC(=O)c1ccc(C(C)=O)c2c(C)c(C(=O)Nc3cc(CN4CC(O)C4)c4ccccc4n3)sc12 [Example 52, 4,7-Diacetyl-N-(4-((3-hydroxyazetidin-1-yl)methyl)quinolin-2-yl)-3-methylbenzo[b]thiophene-2-carboxamide]
3	COCc1ccc(C(C)=O)c2sc(C(=O)Nc3ccc4c(C(C)(C)O)cccc4n3)c(C)c12 [Example 74, 7-Acetyl-N-(5-(2-hydroxypropan-2-yl)quinolin-2-yl)-4-(methoxymethyl)-3-methylbenzo[b]thiophene-2-carboxamide]
2.1	CC(=O)c1ccc(CO)c2c(C)c(C(=O)Nc3ccc4c(CO)cccc4n3)sc12 [Example 114, 7-Acetyl-4-(hydroxymethyl)-N-(5-(hydroxymethyl)quinolin-2-yl)-3-methylbenzo[b]thiophene-2-carboxamide]
1.2	COCc1ccc(C(C)=O)c2sc(C(=O)Nc3ccc4c(C(=O)NN5CCCC5)cccc4n3)c(C)c12 [Example 94, 2-(7-Acetyl-4-(methoxymethyl)-3-methylbenzo[b]thiophene-2-carboxamido)-N-(pyrrolidin-1-yl)quinoline-5-carboxamide]
9.1	COC(C)c1ccc(C(C)=O)c2sc(C(=O)Nc3cc(C(C)(C)O)c4ccccc4n3)c(C)c12 (stereo not shown) [Example 32, 7-Acetyl-N-(4-(2-hydroxypropan-2-yl)quinolin-2-yl)-4-(1-methoxyethyl)-3-methylbenzo[b]thiophene-2-carboxamide]
2.2	CC(=O)c1ccc(C(C)=O)c2c(C)c(C(=O)Nc3cc(C)c4ccccc4n3)sc12 [Example 11, 4,7-Diacetyl-3-methyl-N-(4-methylquinolin-2-yl)benzo[b]thiophene-2-carboxamide]
0.48	COCc1ccc(C(C)=O)c2sc(C(=O)Nc3ccc4c(C(=O)N5CCOCC5)cccc4n3)c(C)c12 [Example 95, 7-Acetyl-4-(methoxymethyl)-3-methyl-N-(5-((morpholin-4-yl)carbonyl)quinolin-2-yl)benzo[b]thiophene-2-carboxamide]
5	CCc1c(C(=O)Nc2cc(C(C)(C)O)c3ccccc3n2)sc2c(C(C)=O)ccc(C(C)=O)c12 [Example 7, 4,7-Diacetyl-3-ethyl-N-(4-(2-hydroxypropan-2-yl)quinolin-2-yl)benzo[b]thiophene-2-carboxamide]
3	CCOCc1ccc(C(C)=O)c2sc(C(=O)Nc3cc(C(C)(C)O)c4ccccc4n3)c(C)c12 [Example 29, 7-Acetyl-4-(ethoxymethyl)-N-(4-(2-hydroxypropan-2-yl)quinolin-2-yl)-3-methylbenzo[b]thiophene-2-carboxamide]
11	CCCOCc1ccc(C(C)=O)c2sc(C(=O)Nc3cc(C(C)(C)O)c4ccccc4n3)c(C)c12 [Example 30, 7-Acetyl-N-(4-(2-hydroxypropan-2-yl)quinolin-2-yl)-3-methyl-4-(propoxymethyl)benzo[b]thiophene-2-carboxamide]
0.9	COCc1ccc(C(C)=O)c2sc(C(=O)Nc3cc(C(C)O)c4ccccc4n3)c(C)c12 (stereo not shown) [Example 33, 7-Acetyl-N-(4-(1-hydroxyethyl)quinolin-2-yl)-4-(methoxymethyl)-3-methylbenzo[b]thiophene-2-carboxamide hydrochloride]
4.8	CCC(=O)c1cccc2c(C)c(C(=O)Nc3cc(C(C)(C)O)c4ccccc4n3)sc12 [Example 16, N-(4-(2-Hydroxypropan-2-yl)quinolin-2-yl)-3-methyl-7-propionylbenzo[b]thiophene-2-carboxamide]
2.6	CC(=O)c1ccc(C(C)=O)c2c(C)c(C(=O)Nc3cc(C(C)(C)O)c4ccccc4n3)sc12 [Example 2, 4,7-Diacetyl-N-(4-(2-hydroxypropan-2-yl)quinolin-2-yl)-3-methylbenzo[b]thiophene-2-carboxamide]
2.6	COCc1ccc(C(C)=O)c2sc(C(=O)Nc3cc(C(=O)N4CC[C@@H](O)C4)c4ccccc4n3)c(C)c12 [Example 50, (R)-7-Acetyl-N-(4-((3-hydroxypyrrolidin-1-yl)carbonyl)quinolin-2-yl)-4-(methoxymethyl)-3-methylbenzo[b]thiophene-2-carboxamide]
1.6	CC(=O)c1ccc(C(C)=O)c2c(C)c(C(=O)Nc3ccc4ccccc4n3)sc12 [Example 1, 4,7-Diacetyl-3-methyl-N-(quinolin-2-yl)benzo[b]thiophene-2-carboxamide]
0.37	COCc1ccc(C(C)=O)c2sc(C(=O)Nc3ccc4c(COC(=O)CCC(=O)O)cccc4n3)c(C)c12 [Example 89, 4-((2-(7-Acetyl-4-(methoxymethyl)-3-methylbenzo[b]thiophene-2-carboxamido)quinolin-5-yl)methoxy)-4-oxobutanoic acid]
0.89	CC(=O)c1ccc(C(C)=O)c2c(C)c(C(=O)Nc3cc(CO)c4ccccc4n3)sc12 [Example 14, 4,7-Diacetyl-N-(4-(hydroxymethyl)quinolin-2-yl)-3-methylbenzo[b]thiophene-2-carboxamide]
2.6	CCCC(=O)c1cccc2c(C)c(C(=O)Nc3cc(C(C)(C)O)c4ccccc4n3)sc12 [Example 17, 7-Butyryl-N-(4-(2-hydroxypropan-2-yl)quinolin-2-yl)-3-methylbenzo[b]thiophene-2-carboxamide]
0.89	COC1CN(C(=O)c2cccc3nc(NC(=O)c4sc5c(C(C)=O)ccc(CO)c5c4C)ccc23)C1 [Example 115, 7-Acetyl-4-(hydroxymethyl)-N-(5-((3-methoxyazetidin-1-yl)carbonyl)quinolin-2-yl)-3-methylbenzo[b]thiophene-2-carboxamide]
25	CCC(CC)C(=O)c1cccc2c(C)c(C(=O)Nc3cc(C(C)(C)O)c4ccccc4n3)sc12 [Example 24, 7-(2-Ethylbutanoyl)-N-(4-(2-hydroxypropan-2-yl)quinolin-2-yl)-3-methylbenzo[b]thiophene-2-carboxamide]
